From US20220315554A1, “COMPOUNDS COMPRISING A […] LIGAND AND USE THEREOF” (priority 2019, published 2022) come the findings set out here.

As a reminder, the IC50 is the point on the concentration scale where inhibition reaches its midpoint. As usually defined, the Kd is the concentration at which binding is half-saturated.

Numbered stars: 1 amine (or outer) side, 2 acyl side, 3 side chain; on linkers, the order of the positions; unused ones are H or OH. Bridge positions count the residues as written; N and C are the ends. Square brackets hold non-standard residues; d marks the D form. Peptide text beside a SMILES is read from it. * marks the point of attachment. X4 = O=C1CN2CCN3CCN(CC(=O)N4CCN(Cc5cc(C[*:1])cc(C[*:2])c5)CC4)CCN(CC2)CC(=O)[O][In]([O]1)[O]C(=O)C3; X7 = O=C(CN1CCN2CCN3CCN(CC1)CC(=O)[O][In]([O]C(=O)C2)[O]C(=O)C3)NCCSCc1cc(C[*:1])cc(C[*:2])c1; X12 = NCCNCC(CNCCN)C(=O)NCCCOCCOCCOCCCN*; mXylylene = c1cc(C[*:1])cc(C[*:2])c1; Pentanesulfonyl = CCCCCS(=O)(=O)*; Suc = O=C(CCC(=O)[*:2])[*:1]; Nle = CCCC[C@H](N)C(=O)O; Hexanoyl = CCCCCC(=O)*; Sar = CNCC(=O)O Some results are limits rather than exact numbers.

Assay [1] concerns the target T1, FAP-expressing human WI-38 fibroblasts (Homo sapiens, UniProt Q12884).
T1 construct: FAP-expressing human WI-38 fibroblasts (ECACC) were cultured in EMEM; host or cells: WI-38 human fibroblasts
T1 sequence (Q12884 1-760): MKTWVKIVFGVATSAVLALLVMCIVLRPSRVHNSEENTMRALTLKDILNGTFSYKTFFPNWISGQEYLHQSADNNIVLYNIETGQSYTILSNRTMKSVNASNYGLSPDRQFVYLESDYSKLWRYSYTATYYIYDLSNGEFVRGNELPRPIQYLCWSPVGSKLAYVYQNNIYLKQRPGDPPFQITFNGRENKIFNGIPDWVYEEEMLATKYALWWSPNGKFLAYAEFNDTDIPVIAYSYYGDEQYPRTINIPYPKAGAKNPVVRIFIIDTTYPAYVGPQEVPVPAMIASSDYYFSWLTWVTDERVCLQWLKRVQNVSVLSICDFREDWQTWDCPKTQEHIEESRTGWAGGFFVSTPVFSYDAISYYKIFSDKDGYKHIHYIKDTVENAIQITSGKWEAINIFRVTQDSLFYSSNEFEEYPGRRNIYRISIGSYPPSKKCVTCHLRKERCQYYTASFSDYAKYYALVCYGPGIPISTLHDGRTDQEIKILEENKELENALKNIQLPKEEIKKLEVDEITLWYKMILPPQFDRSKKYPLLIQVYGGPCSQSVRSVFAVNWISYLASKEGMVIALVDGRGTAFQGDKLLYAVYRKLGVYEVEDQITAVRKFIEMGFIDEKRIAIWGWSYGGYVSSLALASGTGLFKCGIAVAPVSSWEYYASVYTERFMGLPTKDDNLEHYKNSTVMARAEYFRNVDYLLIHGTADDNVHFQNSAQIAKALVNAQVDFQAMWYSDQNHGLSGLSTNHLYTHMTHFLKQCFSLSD
As to the kind of experiment: Competitive FACS binding assay. The note with it: pIC50 Category (FACS), competition with 3 nM Cy5-labeled compound, 4° C., 1 hour. The procedure: Cells were analyzed in an Attune NxT flow cytometer. […]
(Flow cytometry measures light scatter and fluorescence of single cells or particles in a stream.)

Assay [2] deals with T2, Human recombinant FAP (Homo sapiens, UniProt Q12884).
T2 sequence (Q12884 1-760): T1 sequence (Q12884 1-760)
The assay is described as follows: Surface plasmon resonance (Biacore) assay. The assay is classed as binding. On the technique in general: Surface plasmon resonance follows binding to a sensor surface in real time, without labels.

Assay [3] deals with T2, Human recombinant FAP. The assay is described as follows: FRET-based FAP protease activity assay. It is filed as biochemical. The following applies: pIC50 Category (Activity), FRET substrate, 37° C. Set-up: purchased R&D systems 3715-SE.

`CCCCCC(=O)N[C@H]1CSCc2cc(CSCCNC(=O)CN3CCN4CCN5CCN(CC3)CC(=O)[O][In]([O]C(=O)C4)[O]C(=O)C5)cc(c2)CSC[C@@H](C(=O)NCC(=O)O)NC(=O)[C@H](Cc2ccccc2)NC(=O)[C@H](CCC(N)=O)NC(=O)[C@H]([C@@H](C)O)NC(=O)[C@@H]2CCCN2C(=O)[C@@H]2CCCN2C1=O` [3BP-3714, Hex-[Cys(tMeBn(InDOTA-AET))-Pro-Pro-Thr-Gln-Phe-Cys]-Gly-OH] (Hexanoyl-CPPTQFCG-OH; linker 1-7 via X7): the IC50 (in assay [1]; at Human recombinant FAP [3]) was less than 0.01 µM each time. In addition, the Kd at Human recombinant FAP [2] is less than 0.01 µM.
With `CCCCCC(=O)N[C@H]1CSCc2cc(CSCCNC(=O)CN3CCN4CCN5CCN(CC3)CC(=O)[O][In]([O]C(=O)C4)[O]C(=O)C5)cc(c2)CSC[C@@H](C(=O)N(C)CC(=O)O)NC(=O)[C@H](Cc2ccccc2)NC(=O)[C@H](CCC(N)=O)NC(=O)[C@H]([C@@H](C)O)NC(=O)[C@@H]2CCCN2C(=O)[C@@H]2CCCN2C1=O` [3BP-3715, Hex-[Cys(tMeBn(InDOTA-AET))-Pro-Pro-Thr-Gln-Phe-Cys]-Nmg-OH], the IC50 (in assay [1]; on Human recombinant FAP [3]) was less than 0.01 µM throughout. Besides, the dissociation constant Kd on Human recombinant FAP [2] was less than 0.01 µM.
With `CCCCCC(=O)N[C@H]1CSCc2cc(CSCCNC(=O)CN3CCN4CCN5CCN(CC3)CC(=O)[O][In]([O]C(=O)C4)[O]C(=O)C5)cc(c2)CSC[C@@H](C(=O)O)NC(=O)[C@H](Cc2ccccc2)NC(=O)[C@H](CCC(N)=O)NC(=O)[C@H]([C@@H](C)O)NC(=O)[C@@H]2CCCN2C(=O)CN(C)C1=O` [3BP-3716, Hex-[Cys(tMeBn(InDOTA-AET))-Nmg-Pro-Thr-Gln-Phe-Cys]-OH] (Hexanoyl-C[Sar]PTQFC-OH; linker 1-7 via X7), the IC50 (in assay [1]; on Human recombinant FAP [3]) was less than 0.01 µM each time. The Kd at Human recombinant FAP [2] is less than 0.01 µM.
Take `CCCCCS(=O)(=O)N[C@H]1CSCc2cc(cc(CN3CCN(C(=O)CN4CCN5CCN6CCN(CC4)CC(=O)[O][In]([O]C(=O)C6)[O]C(=O)C5)CC3)c2)CSC[C@@H](C(=O)N[C@@H](CC(=O)O)C(N)=O)NC(=O)[C@H](Cc2ccccc2)NC(=O)[C@H](CCC(N)=O)NC(=O)[C@H]([C@@H](C)O)NC(=O)[C@@H]2CCCN2C(=O)[C@@H]2CCCN2C1=O` [3BP-3717, Pentyl-SO2-[Cys(tMeBn(InDOTA-PP))-Pro-Pro-Thr-Gln-Phe-Cys]-Asp-NH2] (Pentanesulfonyl-CPPTQFCD-NH2; linker 1-7 via X4): the IC50 (in assay [1]; on Human recombinant FAP [3]) was less than 0.01 µM in each case. The Kd on Human recombinant FAP [2] is less than 0.01 µM.
As for `CCCCCC(=O)N[C@H]1CSCc2cc(CSCCNC(=O)CN3CCN(CC(=O)O)CCN(CC(=O)O)CCN(CC(=O)O)CC3)cc(c2)CSC[C@@H](C(=O)NCCC(N)=O)NC(=O)[C@H](Cc2ccccc2)NC(=O)[C@H](CCC(N)=O)NC(=O)[C@H]([C@@H](C)O)NC(=O)[C@@H]2CCCN2C(=O)[C@@H]2CCCN2C1=O` [3BP-3736, Hex-[Cys(tMeBn(DOTA-AET))-Pro-Pro-Thr-Gln-Phe-Cys]-Bal-NH2], the IC50 (in assay [1]; on Human recombinant FAP [3]) was less than 0.01 µM throughout. The Kd at Human recombinant FAP [2] is less than 0.01 µM.
For the compound `CCCCCC(=O)N[C@H]1CSCc2cc(CSCCNC(=O)CN3CCN(CC(=O)O)CCN(CC(=O)O)CCN(CC(=O)O)CC3)cc(c2)CSC[C@@H](C(=O)N(C)CC(N)=O)NC(=O)[C@H](Cc2ccccc2)NC(=O)[C@H](CCC(N)=O)NC(=O)[C@H]([C@@H](C)O)NC(=O)[C@@H]2CCCN2C(=O)[C@@H]2CCCN2C1=O` [3BP-3737, Hex-[Cys(tMeBn(DOTA-AET))-Pro-Pro-Thr-Gln-Phe-Cys]-Nmg-NH2], the half-inhibitory concentration (IC50) (in assay [1]; on Human recombinant FAP [3]) was less than 0.01 µM throughout. Further, the equilibrium dissociation constant (Kd) at Human recombinant FAP [2] is less than 0.01 µM.
With `CCCCCC(=O)N[C@H]1CSCc2cc(CSCCNC(=O)CN3CCN4CCN5CCN(CC3)CC(=O)[O][Ga]([O]C(=O)C4)[O]C(=O)C5)cc(c2)CSC[C@@H](C(=O)O)NC(=O)[C@H](Cc2ccccc2)NC(=O)[C@H](CCC(N)=O)NC(=O)[C@H]([C@@H](C)O)NC(=O)[C@@H]2CCCN2C(=O)[C@@H]2CCCN2C1` [3BP-3949, Gallium-Complex of Hex-[Cys(tMeBn(DOTA-AET))-Pro-Pro-Thr-Gln-Phe-Cys]-OH], the IC50 (in assay [1]; at Human recombinant FAP [3]) was less than 0.01 µM in each case. Further, the dissociation constant (Kd) on Human recombinant FAP [2] was less than 0.01 µM.
Take `CCCCCC(=O)N[C@H]1CSCc2cc(CSCCNC(=O)C(CNCCN)CNCCN)cc(c2)CSC[C@@H](C(=O)O)NC(=O)[C@H](Cc2ccccc2)NC(=O)[C@H](CCC(N)=O)NC(=O)[C@H]([C@@H](C)O)NC(=O)[C@@H]2CCCN2C(=O)[C@@H]2CCCN2C1=O` [3BP-4063, Hex-[Cys-(tMeBn(N4Ac-AET))-Pro-Pro-Thr-Gln-Phe-Cys]-OH]: the IC50 (in assay [1]; at Human recombinant FAP [3]) was less than 0.01 µM each time. The Kd on Human recombinant FAP [2] is less than 0.01 µM.
For `CCCCCC(=O)N[C@H]1CSCc2cc(CSCCNC(=O)COCCOCCNC(=O)C(CNCCN)CNCCN)cc(c2)CSC[C@@H](C(=O)O)NC(=O)[C@H](Cc2ccccc2)NC(=O)[C@H](CCC(N)=O)NC(=O)[C@H]([C@@H](C)O)NC(=O)[C@@H]2CCCN2C(=O)[C@@H]2CCCN2C1=O` [3BP-4088, Hex-[Cys-(tMeBn(N4Ac-O2Oc-AET))-Pro-Pro-Thr-Gln-Phe-Cys]-OH], the IC50 (in assay [1]; on Human recombinant FAP [3]) was less than 0.01 µM throughout. At Human recombinant FAP [2], the Kd is less than 0.01 µM.
As for `CCCC[C@H](NC(=O)CCC(=O)NCCCOCCOCCOCCCNC(=O)C(CNCCN)CNCCN)C(=O)N[C@H]1CSCc2cccc(c2)CSC[C@@H](C(=O)O)NC(=O)[C@H](Cc2ccccc2)NC(=O)[C@H](CCC(=O)O)NC(=O)[C@H]([C@@H](C)O)NC(=O)[C@@H]2CCCN2C(=O)[C@@H]2CCCN2C1=O` [3BP-4161, N4Ac-Ttds-Nle-[Cys-(3MeBn)-Pro-Pro-Thr-Glu-Phe-Cys]-OH] ({X12-Suc}-[Nle]CPPTEFC-OH; linker 2-8 via mXylylene), the IC50 (in assay [1]; on Human recombinant FAP [3]) was less than 0.01 µM each time. The equilibrium dissociation constant (Kd) at Human recombinant FAP [2] was less than 0.01 µM.
Regarding `CCCCCC(=O)N[C@H]1CSCc2cc(CSCCNC(=O)CC[C@H](C(=O)O)N3CCN(CC(=O)O)CN(CC(=O)O)C3)cc(c2)CSC[C@@H](C(=O)O)NC(=O)[C@H](Cc2ccccc2)NC(=O)[C@H](CCC(N)=O)NC(=O)[C@H]([C@@H](C)O)NC(=O)[C@@H]2CCCN2C(=O)[C@@H]2CCCN2C1=O` [3BP-4162, Hex-[Cys-(tMeBn(NODAGA-AET))-Pro-Pro-Thr-Gln-Phe-Cys]-OH], the IC50 (in assay [1]; at Human recombinant FAP [3]) was less than 0.01 µM throughout. Further, on Human recombinant FAP [2], the Kd is less than 0.01 µM.
Take `CCCCCC(=O)N[C@H]1CSCc2cc(cc(CN3CCN(C(=O)C(CNCCN)CNCCN)CC3)c2)CSC[C@@H](C(=O)O)NC(=O)[C@H](Cc2ccccc2)NC(=O)[C@H](CCC(N)=O)NC(=O)[C@H]([C@@H](C)O)NC(=O)[C@@H]2CCCN2C(=O)[C@@H]2CCCN2C1=O` [3BP-4168, Hex-[Cys-(tMeBn(N4Ac-PP))-Pro-Pro-Thr-Gln-Phe-Cys]-OH]: the IC50 (in assay [1]; at Human recombinant FAP [3]) was less than 0.01 µM each time. Also, on Human recombinant FAP [2], the Kd was less than 0.01 µM.
Take `CCCCCC(=O)N[C@H]1CSCc2cc(CSCCNC(=O)CCCN(C)C(=O)c3ccccc3-c3c4ccc(=N)c(S(=O)(=O)O)c-4oc4c(S(=O)(=O)O)c(N)ccc34)cc(c2)CSC[C@@H](C(=O)O)NC(=O)[C@H](Cc2ccccc2)NC(=O)[C@H](CCC(N)=O)NC(=O)[C@H]([C@@H](C)O)NC(=O)[C@@H]2CCCN2C(=O)[C@@H]2CCCN2C1=O` [3BP-4182, Hex-[Cys(tMeBn(ATTO488-AET))-Pro-Pro-Thr-Gln-Phe-Cys]-OH]: the IC50 (in assay [1]; on Human recombinant FAP [3]) was 0.01 to 0.0794 µM throughout. Also, the Kd on Human recombinant FAP [2] lay in the range of 0.01 to 0.0794 µM.
